# From US12357591B2 (Nova Southeastern University, priority 2018, dated 2025)
# Experiments:
# in vitro [1] = experiment: in vitro
# Method: The volunteer was asked not to eat or drink any acidic, alkaline, or spicy food or beverages and to rinse their mouth before the collection of saliva. The saliva was collected into an ice-bathed beaker and then degased to remove air bubbles and then filtered through 0.45 μm membrane.
# Aliquot samples were withdrawn at specific time intervals including 2, 4, 6, 10, 15, and 30 min.
# in vitro [2] = settings: for Papp at 90 min, 10 mg/mL: pig
# Method: Frozen pig's heads were obtained from local abattoir. Then, they were defrosted at room temperature. The porcine mucosa were excised by dissecting the sublingual mucosa and removing the underlying connective tissue using a scalpel and fine tweezers using established surgical techniques. The excised mucosa were frozen on aluminum foil at −20° C. until used (<4 weeks).
# The sublingual mucosa (floor of the mouth) excised from pigs were used as the diffusion membranes. Mcvilian buffer at various pH was used in the donor cell as a diffusion medium.
# Before each experiment, the mucosal membranes were defrosted at room temperature and mounted between the donor and receptor chambers and clamped using a metal clamp. The receptor chamber that has a magnetic stirrer was filled with the diffusion medium before mounting the membranes and air bubbles were removed after mounting the membranes and before the experiment. The water bath was set at 37° C. for the circulating water in the jacketed Franz Cells. The mounted membranes were equilibrated with the diffusion medium for 30 min from both sides before the experiment and were checked for any leaks.
# Aliquots were withdrawn from the receptor chamber using 6 inch-long needles (Popper & Sons. Inc, New Hyde Park, NYC) and 1 mL syringes at 5, 10, 15, 20, 30, 45, 60, 75, and 90 min. The withdrawn volumes were replaced with fresh medium.
# Samples were transferred to HPLC vials for HPLC analysis according to USP Method.
# [3] = cited from earlier work
# [4] = between pH 4 to 5, first 2 min
# Method: Aliquot samples were withdrawn at specific time intervals including 2 (maximum expected time for sublingual administration), 4, 6, 10, 15, and 30 min.
# [5] = Epinephrine permeability with alkalizing agent and penetration enhancer, Franz cells; type: in vitro ADME, porcine
# Method: EpiBit solution with penetration enhancer and alkalizing agent was added to the donor chamber.
# [6] = pH of 2 mL water as diffusion medium with pH-modifying excipients; type: physicochemical
# [7] = 1.125% (w/v) in 2 mL water, With Epi (20 mg)
# [8] = 1.125% (w/v) in 2 mL water, Without Epi
# [9] = 1.875% (w/v) in 2 mL water, With Epi (20 mg)
# [10] = 1.875% (w/v) in 2 mL water, Without Epi
molecule,measurement,setting,value
"CNC[C@H](O)c1ccc(O)c(O)c1 [Epi, Epinephrine]","recovery at 0 min, 5 mg/mL","in vitro [1]; male, human, human saliva",100 ± 0.2%
same,"recovery at 2 min, 5 mg/mL","in vitro [1]; male, human, human saliva",96 ± 0.2%
same,"recovery at 4 min, 5 mg/mL","in vitro [1]; male, human, human saliva",96 ± 0.2%
same,"recovery at 6 min, 5 mg/mL","in vitro [1]; male, human, human saliva",95 ± 0.1%
same,"recovery at 10 min, 5 mg/mL","in vitro [1]; male, human, human saliva",95 ± 0.2%
same,"recovery at 15 min, 5 mg/mL","in vitro [1]; male, human, human saliva",92 ± 0.2%
same,"recovery at 30 min, 5 mg/mL","in vitro [1]; male, human, human saliva",84%
same,stability of Epi in human saliva,in vitro [1]; saliva pH and up to pH 8,stable in human saliva (saliva pH and up to pH 8) for sufficient time to allow for sublingual drug administration
same,AUC0-90 min,in vitro [2]; pH 5,5169 ± 255 μg/cm^2/ min
same,J (influx),in vitro [2]; pH 5,0.4 ± 0.1 μg/cm^2/min
same,AUC0-90 min,in vitro [2]; pH 6,6191 ± 756 μg/cm^2/ min
same,J (influx),in vitro [2]; pH 6,0.8 ± 0.2 μg/cm^2/min
same,AUC0-90 min,in vitro [2]; pH 6.8,46562 ± 3450 μg/cm^2/ min
same,J (influx),in vitro [2]; pH 6.8,2.8 ± 0.2 μg/cm^2/min
same,AUC0-90 min,in vitro [2]; pH 7.4,60099 ± 6576 μg/cm^2/ min
same,J (influx),in vitro [2]; pH 7.4,5.3 ± 0.2 μg/cm^2/min
same,AUC0-90 min,in vitro [2]; pH 8,135689 ± 439 μg/cm^2/ min
same,J (influx),in vitro [2]; pH 8,30.9 ± 0.4 μg/cm^2/min
same,increase of Epi sublingual permeability,in vitro [2]; pH 8 compared to pH 6.8,about 11 fold
same,"Papp at 90 min, 10 mg/mL",in vitro [2]; pH 5,333 ×10⁻⁶ cm/s
same,"Papp at 90 min, 10 mg/mL",in vitro [2]; pH 6,667 ×10⁻⁶ cm/s
same,"Papp at 90 min, 10 mg/mL",in vitro [2]; pH 6.8,2330 ×10⁻⁶ cm/s
same,"Papp at 90 min, 10 mg/mL",in vitro [2]; pH 7.4,4330 ×10⁻⁶ cm/s
same,optimal pH values for the stability of Epi in aqueous solution,[3],3.0-3.8
same,Epi loss,[4],10-17%
same,enhancement of Epi sublingual permeability,[5]; alkalizing agent (pH of diffusion medium around 8) with permeation enhancer like SDS,about 25 fold
same,enhancement of Epi sublingual permeability,"[5]; alkalizing agent or permeation enhancer, each one alone",10- to 11 fold
"O=C([O-])O.[Na+] [Na Bicarbonate, sodium bicarbonate]",pH Reading,[6]; [7],7.9 ± 0.1
same,pH Reading,[6]; [8],8.9 ± 0.1
same,pH Reading,[6]; [9],7.7 ± 0.0
same,pH Reading,[6]; [10],8.5 ± 0.1
same,pH Reading,"[6]; 2.25% (w/v) in 2 mL water, With Epi (20 mg)",7.9 ± 0.1
same,pH Reading,"[6]; 2.25% (w/v) in 2 mL water, Without Epi",8.6 ± 0.1
Na Citrate,pH Reading,[6]; [7],5.0 ± 0.1
same,pH Reading,[6]; [8],9.4 ± 0.1
same,pH Reading,[6]; [9],7.1 ± 0.1
same,pH Reading,[6]; [10],9.8 ± 0.1
